IC50 data for 46 molecules are collected here from the Kinase Knowledgebase extract (Sharma et al. 2016).

This assay deals with PIK3CA (human) (UniProt P42336). The experiment in a line: Assessment of PIK3CA Kinase Activity.
Sequence of PIK3CA (human) (P42336 whole entry, looked up): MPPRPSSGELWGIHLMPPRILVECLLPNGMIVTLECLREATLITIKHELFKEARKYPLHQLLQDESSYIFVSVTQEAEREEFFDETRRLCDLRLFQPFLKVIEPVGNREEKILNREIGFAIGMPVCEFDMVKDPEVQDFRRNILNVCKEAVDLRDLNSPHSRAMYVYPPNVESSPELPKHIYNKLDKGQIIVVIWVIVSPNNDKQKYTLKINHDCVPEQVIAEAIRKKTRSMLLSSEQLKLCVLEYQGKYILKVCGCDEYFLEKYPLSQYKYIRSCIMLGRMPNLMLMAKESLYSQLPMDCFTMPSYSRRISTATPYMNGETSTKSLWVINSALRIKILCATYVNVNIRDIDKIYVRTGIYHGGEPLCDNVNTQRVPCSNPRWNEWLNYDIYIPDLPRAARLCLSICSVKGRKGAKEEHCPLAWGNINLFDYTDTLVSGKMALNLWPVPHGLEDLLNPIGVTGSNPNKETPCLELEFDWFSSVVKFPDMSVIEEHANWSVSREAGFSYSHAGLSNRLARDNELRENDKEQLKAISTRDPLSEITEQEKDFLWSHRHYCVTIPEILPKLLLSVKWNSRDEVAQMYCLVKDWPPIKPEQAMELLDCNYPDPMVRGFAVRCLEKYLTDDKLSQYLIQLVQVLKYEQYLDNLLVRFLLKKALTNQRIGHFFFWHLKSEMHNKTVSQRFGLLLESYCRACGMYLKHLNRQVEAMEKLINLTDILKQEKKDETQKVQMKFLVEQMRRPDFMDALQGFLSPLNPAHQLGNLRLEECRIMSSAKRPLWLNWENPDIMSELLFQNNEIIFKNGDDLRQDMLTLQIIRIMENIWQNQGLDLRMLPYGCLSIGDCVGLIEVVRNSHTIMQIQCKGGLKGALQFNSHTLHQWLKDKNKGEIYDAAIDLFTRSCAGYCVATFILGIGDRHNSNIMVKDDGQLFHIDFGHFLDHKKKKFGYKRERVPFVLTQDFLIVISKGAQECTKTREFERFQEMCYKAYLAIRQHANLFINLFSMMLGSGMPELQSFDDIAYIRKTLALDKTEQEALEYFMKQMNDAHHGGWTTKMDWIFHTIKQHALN
Consider `CN(C)S(=O)(=O)c1ccc(-c2nc(N)nc3c2-c2cc(NS(=O)(=O)c4ccc(F)cc4F)c(Cl)cc2CC3)cc1`, for which the half-maximal inhibitory concentration (IC50) (usually the concentration at which inhibition is half-maximal) was found to be 2.5 nM.

`Nc1nc2c(c(-c3cccc(S(=O)(=O)N4CCOCC4)c3)n1)-c1cc(NS(=O)(=O)c3ccc(F)cc3F)c(Cl)cc1CC2` gave a concentration for half-maximal inhibition (IC50) of 7.9 nM.

On to `CC(=O)Nc1ccc(-c2nc(N)nc3c2-c2cc(NS(=O)(=O)c4ccc(F)cc4F)c(Cl)cc2CC3)cc1`, for which the half-inhibitory concentration (IC50) stood at 2.5 nM.

In the case of `Nc1nc2c(c(-c3ccncc3)n1)-c1cc(NS(=O)(=O)c3ccccc3)c(Cl)cc1CC2`, the IC50 was found to be 6.3 nM.

`CS(=O)(=O)c1cccc(-c2nc(N)nc3c2-c2cc(NS(=O)(=O)c4ccc(F)cc4F)c(Cl)cc2CC3)c1` returned an IC50 of 1.3 nM.

For the molecule `NC(=O)c1ccc(-c2nc(N)nc3c2-c2cc(NS(=O)(=O)c4ccc(F)cc4F)c(Cl)cc2CC3)cc1`, the 50% inhibitory concentration (IC50) was 4 nM.

For the molecule `CC(=O)Nc1cccc(-c2nc(N)nc3c2-c2cc(S(=O)(=O)N4CCOCC4)c(Cl)cc2CC3)c1`, the IC50 stood at 25 nM.

In turn, `Nc1nc2c(c(-c3ccccc3)n1)-c1cc(S(=O)(=O)N3CCOCC3)c(Cl)cc1CC2` displayed a half-maximal inhibitory concentration (IC50) of 3.2 nM.

In turn, `Cn1cc(-c2nc(N)nc3c2-c2cc(NS(=O)(=O)c4ccccc4)c(Cl)cc2CC3)cn1` displayed an IC50 of 5 nM.

For the molecule `Nc1nc2c(c(-c3ccncc3)n1)-c1cc(NS(=O)(=O)c3ccc4ccccc4c3)c(Cl)cc1CC2`, the concentration for half-maximal inhibition (IC50) is 405 nM.

For the molecule `CC(=O)Nc1ccc(-c2nc(N)nc3c2-c2cc(S(=O)(=O)N4CCOCC4)c(Cl)cc2CC3)cc1`, the IC50 came out at 3.2 nM.

Take `Cn1cc(-c2nc(N)nc3c2-c2cc(NS(=O)(=O)c4ccc(F)cc4F)c(Cl)cc2CC3)cn1`: the half-maximal inhibitory concentration (IC50) was found to be 6.3 nM.

Consider `Nc1nc2c(c(-c3ccncc3)n1)-c1cc(NS(=O)(=O)c3cccc(Cl)c3)c(Cl)cc1CC2`, for which the IC50 was 2.5 nM.

Regarding `Nc1nc2c(c(-c3cccc(F)c3)n1)-c1cc(NS(=O)(=O)c3ccc(F)cc3F)c(Cl)cc1CC2`, the 50% inhibitory concentration (IC50) is 4 nM.

Consider `Nc1nc2c(c(-c3ccc(F)cc3)n1)-c1cc(S(N)(=O)=O)c(Cl)cc1CC2`, for which the IC50 worked out at 1.6 nM.

The molecule `Cc1ccc([N+](=O)[O-])cc1S(=O)(=O)Nc1cc2c(cc1Cl)CCc1nc(N)nc(-c3ccncc3)c1-2` gave an IC50 of 202 nM.

On to `COc1ccc(-c2nc(N)nc3c2-c2cc(NS(=O)(=O)c4ccc(F)cc4F)c(Cl)cc2CC3)cc1`, for which the IC50 stood at 2 nM.

The molecule `CNC(=O)c1cccc(-c2nc(N)nc3c2-c2cc(NS(=O)(=O)c4ccc(F)cc4F)c(Cl)cc2CC3)c1` registered an IC50 of 4 nM.

In turn, `CC(=O)Nc1cccc(-c2nc(N)nc3c2-c2cc(NS(=O)(=O)c4ccc(F)cc4F)c(Cl)cc2CC3)c1` returned an IC50 of 16 nM.

With `NC(=O)c1cccc(-c2nc(N)nc3c2-c2cc(NS(=O)(=O)c4ccc(F)cc4F)c(Cl)cc2CC3)c1`, the IC50 amounted to 2 nM.

`Nc1nc2c(c(-c3ccncc3)n1)-c1cc(NS(=O)(=O)c3cccs3)c(Cl)cc1CC2` gave an IC50 of 3.2 nM.

`Nc1nc2c(c(-c3ccccc3)n1)-c1cc(NS(=O)(=O)c3ccc(F)cc3F)c(Cl)cc1CC2` displayed an IC50 of 4 nM.

`CS(=O)(=O)c1ccc(-c2nc(N)nc3c2-c2cc(NS(=O)(=O)c4ccc(F)cc4F)c(Cl)cc2CC3)cc1` came in with an IC50 of 2.5 nM.

For the molecule `Nc1nc2c(c(-c3ccncc3)n1)-c1cc(NS(=O)(=O)c3ccc(F)cc3F)c(Cl)cc1CC2`, the IC50 turned out to be 1 nM.

The molecule `Nc1nc2c(c(-c3cccnc3)n1)-c1cc(NS(=O)(=O)c3ccc(F)cc3F)c(Cl)cc1CC2` registered an IC50 of 20 nM.

`Nc1nc2c(c(-c3ccccc3)n1)-c1cc(NS(=O)(=O)c3ccoc3)c(Cl)cc1CC2`: the half-maximal inhibitory concentration (IC50) was 16 nM.

Molecule `Nc1nc2c(c(-c3ccc(F)cc3)n1)-c1cc(NS(=O)(=O)c3ccc(F)cc3F)c(Cl)cc1CC2` came in with an IC50 of 2.5 nM.

Regarding `Nc1cccc(-c2nc(N)nc3c2-c2cc(S(=O)(=O)N4CCOCC4)c(Cl)cc2CC3)c1`, the IC50 came to 6.3 nM.

`Nc1nc2c(c(-c3ccc(S(=O)(=O)N4CCOCC4)cc3)n1)-c1cc(NS(=O)(=O)c3ccc(F)cc3F)c(Cl)cc1CC2` showed an IC50 of 2.5 nM.

In turn, `Nc1nc2c(c(-c3ccc(F)cc3)n1)-c1cc(NS(=O)(=O)c3ccccc3)c(Cl)cc1CC2` showed an IC50 of 13 nM.

In turn, `CC(C)S(=O)(=O)Nc1cc2c(cc1Cl)CCc1nc(N)nc(-c3ccccc3)c1-2` registered an IC50 of 25 nM.

Consider `CNC(=O)c1ccc(-c2nc(N)nc3c2-c2cc(NS(=O)(=O)c4ccc(F)cc4F)c(Cl)cc2CC3)cc1`, for which the IC50 was determined as 1.6 nM.

Consider `Nc1nc2c(c(-c3ccccc3)n1)-c1cc(NC(=O)c3ccc(F)cc3F)c(Cl)cc1CC2`, for which the IC50 was determined as 1580 nM.

In turn, `Nc1nc2c(c(-c3ccncc3)n1)-c1cc(S(=O)(=O)N3CCOCC3)c(Cl)cc1CC2` registered an IC50 of 10 nM.

`Nc1nc2c(c(-c3ccccc3F)n1)-c1cc(S(=O)(=O)N3CCOCC3)c(Cl)cc1CC2` came in with an IC50 of 13 nM.

In turn, `N#Cc1ccc(S(=O)(=O)Nc2cc3c(cc2Cl)CCc2nc(N)nc(-c4ccncc4)c2-3)cc1` displayed an IC50 of 1.6 nM.

Turning to `Nc1nc2c(c(-c3ccccc3)n1)-c1cc(NS(=O)(=O)c3ccccc3)c(Cl)cc1CC2`, the IC50 is 13 nM.

In the case of `COc1cccc(-c2nc(N)nc3c2-c2cc(NS(=O)(=O)c4ccc(F)cc4F)c(Cl)cc2CC3)c1`, the IC50 amounted to 5 nM.

As for `Cc1ccc(-c2nc(N)nc3c2-c2cc(S(=O)(=O)N4CCOCC4)c(Cl)cc2CC3)cc1`, the half-inhibitory concentration (IC50) came out at 4 nM.

On to `Nc1nc2c(c(=O)[nH]1)-c1ccc(Cl)cc1CC2`, for which the IC50 was found to be 5010 nM.

As for `Nc1nc2c(c(-c3ccc(F)cc3)n1)-c1cc(S(=O)(=O)N3CCOCC3)c(Cl)cc1CC2`, the concentration for half-maximal inhibition (IC50) came out at 6.3 nM.

Molecule `CN(C)S(=O)(=O)c1cccc(-c2nc(N)nc3c2-c2cc(NS(=O)(=O)c4ccc(F)cc4F)c(Cl)cc2CC3)c1` had a half-maximal inhibitory concentration (IC50) of 3.2 nM.

In the case of `N#Cc1cccc(S(=O)(=O)Nc2cc3c(cc2Cl)CCc2nc(N)nc(-c4ccncc4)c2-3)c1`, the IC50 was 313 nM.

`CC(C)S(=O)(=O)Nc1cc2c(cc1Cl)CCc1nc(N)nc(-c3ccc(F)cc3)c1-2` registered an IC50 of 32 nM.

In turn, `CNC(=O)c1ccc(-c2nc(N)nc3c2-c2cc(S(=O)(=O)N4CCOCC4)c(Cl)cc2CC3)cc1` yielded an IC50 of 7.9 nM.

As for `Nc1nc2c(c(-c3cccnc3)n1)-c1cc(S(=O)(=O)N3CCOCC3)c(Cl)cc1CC2`, the IC50 came to 20 nM.
